This is an account of results in patent US8648118B2, “Bicyclic ring system substituted amide functionalised phenols as medicaments” (Boehringer Ingelheim International GmbH, priority 2010, dated 2014).

This assay has as its target T1, BAF/3 cells expressing human CXCR2 (Homo sapiens, UniProt P25025).
T1 construct: expressed in transfected cells; host or cells: BAF/3 cells
T1 sequence (P25025 1-360): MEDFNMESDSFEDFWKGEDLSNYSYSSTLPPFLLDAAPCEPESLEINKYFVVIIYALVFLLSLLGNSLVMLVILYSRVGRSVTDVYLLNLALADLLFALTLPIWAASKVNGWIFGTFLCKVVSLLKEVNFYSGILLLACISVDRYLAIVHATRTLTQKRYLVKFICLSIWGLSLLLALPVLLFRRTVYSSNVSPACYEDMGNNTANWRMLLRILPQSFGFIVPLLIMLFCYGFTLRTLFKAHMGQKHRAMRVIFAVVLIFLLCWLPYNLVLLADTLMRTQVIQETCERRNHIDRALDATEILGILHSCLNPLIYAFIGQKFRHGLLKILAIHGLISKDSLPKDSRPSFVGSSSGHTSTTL
The assay can be described thus: Chemotaxis assay 1, transfected cell line: inhibition of CXCL1 induced chemotaxis. The assay is classed as cell-based. The conditions noted are these: inhibition of CXCL1 (3 nM) induced chemotaxis of BAF/3 cells expressing human CXCR2; 4 hours incubation. On the procedure:
Chemotaxis assay 1, transfected cell line: This assay measures the inhibition of CXCL1 induced chemotaxis of BAF/3 cells expressing human CXCR2. For each assay point, 100 μL of a 3×10^6/mL cell suspension are incubated with 1 μL of test compound diluted in DMSO. The bottom wells of a chemotaxis plate (5 μm pore size, Neuroprobe) is filled with 305 μL of chemotaxis buffer (RPMI 1640 medium (phenol red free), containing 2% fetal calf serum) and 3 nM CXCL1. The 5 μm pore membrane is applied onto the chemotaxis plate and 80 μL of the cell suspension is cautiously pipetted onto the membrane. The lid is put on the chemotaxis plate and the plate is incubated for 4 hours in an incubator (37° C., 5% CO2). For quantification of migrated cells, the cell suspension and the lid are removed and 100 μL from the bottom chamber are transferred to an Opti plate 96 (Perkin Elmer). 100 μL of substrate solution (provided by Cell Titer Glo kit, Promega) are added. This method uses the measurement of ATP present in metabolically active cells. After 10 min incubation at room temperature the plate is measured at Luminoscan for quantification of ATP-dependent generation of oxyluciferin. IC50s of the tested compound are calculated by non-linear regression and using a sigmoidal dose-response curve as fitting algorithm (provided by GraphPadPrism). Determination of a bottom value is performed by quantification of migration of buffer treated cells, migrating towards buffer only. Determination of a top value is performed by quantification of migration of buffer treated cells, migrating towards CXCL1.

In turn, `O=C(Nc1ccccc1Br)Nc1cccc(C(=O)N2CCC3(CCNC3=O)CC2)c1O` [Example 1] showed an IC50 of 597 nM. For the compound `O=C(Nc1cccc(C(=O)N2CCC3(CCNC3=O)CC2)c1O)Nc1cccc(Cl)c1Cl` [Example 3], the midpoint of inhibition, the IC50, lay at 634 nM.

In turn, `O=C(Nc1cccc(C(=O)N2CCC3(CCNC3=O)CC2)c1O)Nc1cccc(F)c1Cl` [Example 4] showed a half-maximal inhibitory concentration (IC50) of 34 nM. `O=C(Nc1ccccc1Br)Nc1cccc(C(=O)N2CCN3CCCC3C2)c1O` (centres unmarked) [Example 5] registered an IC50 of 377 nM. `O=C(Nc1cccc(C(=O)N2CCN3CCCC3C2)c1O)Nc1cccc(Cl)c1Cl` (centres unmarked) [Example 7]: the midpoint of inhibition, the IC50, lay at 2570 nM. In the case of `O=C(Nc1ccccc1Br)Nc1cccc(C(=O)N2CCN3CCC[C@@H]3C2)c1O` [Example 8], it took 651 nM to reach half-maximal inhibition (IC50). On to `O=C(Nc1cccc(C(=O)N2CCN3CCC[C@@H]3C2)c1O)Nc1cccc(F)c1Cl` [Example 9], for which it took 22 nM to reach half-maximal inhibition (IC50). Regarding `O=C(Nc1ccccc1Br)Nc1cccc(C(=O)N2CCN3CCC[C@H]3C2)c1O` [Example 10], the IC50 stood at 260 nM. As to `O=C(Nc1cccc(C(=O)N2CCN3CCC[C@H]3C2)c1O)Nc1cccc(F)c1Cl` [Example 11], it took 41 nM to reach half-maximal inhibition (IC50). `O=C(Nc1ccccc1Br)Nc1cccc(C(=O)N2CCN3C(=O)CCC3C2)c1O` (centres unmarked) [Example 12] returned an IC50 of 119 nM. The compound `O=C(Nc1cccc(C(=O)N2CCN3C(=O)CCC3C2)c1O)Nc1cccc(Cl)c1Cl` (centres unmarked) [Example 13] came in with an IC50 of 47 nM. The result for `O=C(Nc1cccc(C(=O)N2CCN3C(=O)CCC3C2)c1O)Nc1cccc(F)c1Cl` (centres unmarked) [Example 14] reads 11 nM. The result for `O=C(Nc1cccc(C(=O)N2CC(=O)N3CCCC3C2)c1O)Nc1cccc(F)c1Cl` (centres unmarked) [Example 15] reads 86 nM.

For `O=C(Nc1ccccc1Br)Nc1cccc(C(=O)N2CC(=O)N3CCCC3C2)c1O` (centres unmarked) [Example 16], the IC50 came out at 85 nM.

The compound `O=C(Nc1cccc(C(=O)N2CCN3CCOCC3C2)c1O)Nc1cccc(F)c1Cl` (centres unmarked) [Example 17] had an IC50 of 1.2 nM. Take `O=C(Nc1cccc(C(=O)N2CCN3C(=O)COC[C@H]3C2)c1O)Nc1cccc(F)c1Cl` [Example 18]: 11 nM corresponded to half-maximal inhibition (IC50). In the case of `O=C(Nc1cccc(C(=O)N2CCN3C(=O)COC[C@@H]3C2)c1O)Nc1cccc(F)c1Cl` [Example 19], the IC50 is 50 nM. In turn, `CCC(Nc1c(Nc2cccc(C(=O)N3CCN4CCCC4C3)c2O)c(=O)c1=O)c1ccccc1` (centres unmarked) [Example 20] registered an IC50 of 16 nM. In the case of `O=C(c1cccc(Nc2c(Nc3cccc(F)c3Cl)c(=O)c2=O)c1O)N1CCN2CCCC2C1` (centres unmarked) [Example 21] it was 8 nM; in that of `O=C(c1cccc(Nc2c(Nc3ccccc3Br)c(=O)c2=O)c1O)N1CCN2CCCC2C1` (centres unmarked) [Example 22], 1.5 nM; in that of `CC[C@H](Nc1c(Nc2cccc(C(=O)N3CCN4CCC[C@@H]4C3)c2O)c(=O)c1=O)c1ccccc1` [Example 23], 2740 nM.

`CC[C@@H](Nc1c(Nc2cccc(C(=O)N3CCN4CCC[C@@H]4C3)c2O)c(=O)c1=O)c1ccccc1` [Example 24] came in with a half-maximal inhibitory concentration (IC50) of 3.2 nM. The compound `CC[C@H](Nc1c(Nc2cccc(C(=O)N3CCN4CCC[C@H]4C3)c2O)c(=O)c1=O)c1ccccc1` [Example 25] returned a concentration for half-maximal inhibition (IC50) of 1350 nM.

`CC[C@@H](Nc1c(Nc2cccc(C(=O)N3CCN4CCC[C@H]4C3)c2O)c(=O)c1=O)c1ccccc1` [Example 26] returned an IC50 of 3.9 nM. `CC[C@@H](Nc1c(Nc2cccc(C(=O)N3CCN4CCC[C@H]4C3)c2O)c(=O)c1=O)c1ccc(C)o1` [Example 27] yielded a 50% inhibitory concentration (IC50) of 0.1 nM. In turn, `CC[C@@H](Nc1c(Nc2cccc(C(=O)N3CCN4CCC[C@H]4C3)c2O)c(=O)c1=O)c1ccc(C(F)(F)F)o1` [Example 28] came in with an IC50 of 40 nM. With `CCC(Nc1c(Nc2cccc(C(=O)N3CCC4(CCNC4=O)CC3)c2O)c(=O)c1=O)c1ccccc1` (centres unmarked) [Example 29], half-maximal inhibition (IC50) was put at 4.1 nM. Compound `CC[C@@H](Nc1c(Nc2cccc(C(=O)N3CCN4C(=O)CCC4C3)c2O)c(=O)c1=O)c1ccccc1` (some centres unmarked) [Example 30] showed a half-inhibitory concentration (IC50) of 267 nM. `CC[C@@H](Nc1c(Nc2cccc(C(=O)N3CC(=O)N4CCCC4C3)c2O)c(=O)c1=O)c1ccccc1` (some centres unmarked) [Example 31] gave a half-maximal inhibitory concentration (IC50) of 662 nM.

On to `CC[C@@H](Nc1c(Nc2cccc(C(=O)N3CCS(=O)(=O)C4(CCNC4=O)C3)c2O)c(=O)c1=O)c1ccccc1` (some centres unmarked) [Example 32], for which half-maximal inhibition (IC50) was put at 401 nM.

In turn, `CC[C@@H](Nc1c(Nc2cccc(C(=O)N3CCC4(CCNC4=O)CC3)c2O)c(=O)c1=O)c1ccccc1` [Example 34] yielded a half-maximal inhibitory concentration (IC50) of 126 nM. For `CC[C@@H](Nc1c(Nc2cccc(C(=O)N3CCN4CCOCC4C3)c2O)c(=O)c1=O)c1ccccc1` (some centres unmarked) [Example 35], the half-inhibitory concentration (IC50) is 16 nM. The result for `CC[C@@H](Nc1c(Nc2cccc(C(=O)N3CC4(COC4)C3)c2O)c(=O)c1=O)c1ccccc1` [Example 36] reads 25 nM; that for `CC[C@@H](Nc1c(Nc2cccc(C(=O)N3CCC4(CCCC4)CC3)c2O)c(=O)c1=O)c1ccccc1` [Example 37], 26 nM; that for `CC[C@@H](Nc1c(Nc2cccc(C(=O)N3CCN4C(=O)COC[C@@H]4C3)c2O)c(=O)c1=O)c1ccccc1` [Example 38], 3.4 nM.

Consider `CC[C@@H](Nc1c(Nc2cccc(C(=O)N3CC4OC(C)(C)C[C@@H]4[C@H]3C(=O)OC)c2O)c(=O)c1=O)c1ccccc1` (some centres unmarked) [Example 39], for which the IC50 stood at 23 nM. Regarding `CC[C@@H](Nc1c(Nc2cccc(C(=O)N3CC4OC(C)(C)C[C@@H]4[C@H]3CO)c2O)c(=O)c1=O)c1ccccc1` (some centres unmarked) [Example 40], the IC50 came to 34 nM. As for `CC[C@@H](Nc1c(Nc2cccc(C(=O)N3CCC4C(=O)NCCC43)c2O)c(=O)c1=O)c1ccccc1` (some centres unmarked) [Example 41], the IC50 was found to be 66 nM. `CC[C@@H](Nc1c(Nc2cccc(C(=O)N3CCO[C@@H]4CNC[C@H]43)c2O)c(=O)c1=O)c1ccccc1` [Example 42]: inhibition was half-maximal at 45 nM (IC50). With `CC[C@@H](Nc1c(Nc2cccc(C(=O)N3CCO[C@@H]4CN(C)C[C@H]43)c2O)c(=O)c1=O)c1ccccc1` [Example 43], it took 11 nM to reach half-maximal inhibition (IC50). In turn, `CC[C@@H](Nc1c(Nc2cccc(C(=O)N3CCC4(CC3)COCC(=O)N4)c2O)c(=O)c1=O)c1ccccc1` [Example 44] showed a half-inhibitory concentration (IC50) of 2130 nM. Take `CC[C@@H](Nc1c(Nc2cccc(C(=O)N3CC4OCCN(C)C4C3)c2O)c(=O)c1=O)c1ccccc1` (some centres unmarked) [Example 45]: the IC50 was 3.3 nM. `CC[C@@H](Nc1c(Nc2cccc(C(=O)N3CCN4CCOC[C@H]4C3)c2O)c(=O)c1=O)c1ccccc1` [Example 46] yielded an IC50 of 51 nM. With `CC[C@@H](Nc1c(Nc2cccc(C(=O)N3CCN4C(CCS4(=O)=O)C3)c2O)c(=O)c1=O)c1ccccc1` (some centres unmarked) [Example 47], the IC50 was 818 nM. In the case of `CC[C@@H](Nc1c(Nc2cccc(C(=O)N3CCN4C(=O)CCC4C3)c2O)c(=O)c1=O)c1ccc(C(F)(F)F)o1` (some centres unmarked) [Example 48], the IC50 is 859 nM. In the case of `CC[C@@H](Nc1c(Nc2cccc(C(=O)N3CCN4CCNC(=O)C4C3)c2O)c(=O)c1=O)c1ccccc1` (some centres unmarked) [Example 49] it was 926 nM. On to `CC[C@@H](Nc1c(Nc2cccc(C(=O)N3CCC4(CCNC4=O)CC3)c2O)c(=O)c1=O)c1ccc(C)o1` [Example 50], for which half-maximal inhibition (IC50) required 1850 nM. `O=C(c1cccc(Nc2c(Nc3cccc(F)c3Cl)c(=O)c2=O)c1O)N1CCN2CCCCC2C1` (centres unmarked) [Example 51] yielded a 50% inhibitory concentration (IC50) of 247 nM. With `O=C(c1cccc(Nc2c(Nc3cccc(F)c3Cl)c(=O)c2=O)c1O)N1CCC2(CCNC2=O)CC1` [Example 52], half-maximal inhibition (IC50) was put at 6.2 nM. For the compound `O=C(c1cccc(Nc2c(Nc3cccc(F)c3Cl)c(=O)c2=O)c1O)N1CC2(COC2)C1` [Example 53], half-maximal inhibition (IC50) was put at 360 nM. Regarding `O=C(c1cccc(Nc2c(Nc3cccc(F)c3Cl)c(=O)c2=O)c1O)N1CCN2CCOCC2C1` (centres unmarked) [Example 54], inhibition was half-maximal at 67 nM (IC50). As for `O=C1NCCC2C1CCN2C(=O)c1cccc(Nc2c(Nc3cccc(F)c3Cl)c(=O)c2=O)c1O` (centres unmarked) [Example 55], it took 617 nM to reach half-maximal inhibition (IC50).

`O=C(c1cccc(Nc2c(Nc3cccc(F)c3Cl)c(=O)c2=O)c1O)N1CC(=O)N2CCCC2C1` (centres unmarked) [Example 56] displayed an IC50 of 865 nM.

As a reminder, the IC50 is the point on the concentration scale where inhibition reaches its midpoint.
